Data: patent publication US11390592B2, “Method for producing the crystalline form of modification a of calcobutrol” (BAYER PHARMA AKTIENGESELLSCHAFT, priority 2016, dated 2022)

Tests used:
Assay type in all cases: physicochemical
[1] = Solubility in water of the polymorphic modifications
[2] = Storage stability and hygroscopicity of the polymorphic forms; details: solid
[3] = Hygroscopic properties: exposure to ambient air, water content by Karl-Fischer titration; details: ca. 20° C., ca. 60% rel. humidity
Method: The hygroscopic properties of three different samples of Calcobutrol were determined, one sample was prepared by the method described in Inorganic Chemistry 1997, 36, 6086-6093 (Example 5), one sample was prepared by the method described in WO2011/054827A1 (Example 6), and one sample was prepared by the method according to the present invention (Example 2).
2 g of each sample were exposed to ambient air (ca. 20° C., ca. 60% rel. humidity). The water content was measured by means of Karl-Fischer-Titration immediately after initial exposure (t=0), three hours (t=3 h), seven hours (t=7 h), and thirty one hours (t=31 h) after initial exposure.

SMILES | Solubility in water [1] | solubility in water (appearance) [1] | storage stability [2] | storage stability ([2]; listed as calcobutrol of modification A) | weight-% water t = 0 ([3]; 2 g exposed to ambient air, immediately after initial exposure) | weight-% water t = 7 h ([3]; ambient air, seven hours after initial exposure) | weight-% water t = 31 h ([3]; ambient air, thirty one hours after initial exposure) | weight-% water t = 3 h ([3]; ambient air, three hours after initial exposure) | hygroscopicity [2]
O=C([O-])CN1CCN(CC(=O)[O-])CCN(C(CO)C(O)CO)CCN(CC(=O)O)CC1.[Ca+2] (stereo not drawn) [Modification A, calcium complex of dihydroxy-hydroxy-methylpropyl-tetraazacyclododecane-triacetic acid (calcobutrol)] | >500 mg/mL | colourlessly soluble in water | good storage stability | storage-stable | 3.0% | 4.3% | 4.3% | 4.5% | –
O=C([O-])CN1CCN(CC(=O)[O-])CCN(C(CO)C(O)CO)CCN(CC(=O)O)CC1.[Ca+2] (stereo not drawn) [Modification B, calcium complex of dihydroxy-hydroxy-methylpropyl-tetraazacyclododecane-triacetic acid (calcobutrol)] | – | – | – | – | – | – | – | – | to a large extent tend to be hygroscopic
